In patent US9480259B2, “Pyrazolopyrans having herbicidal and pharmaceutical properties” (BASF SE, priority 2012, dated 2016):

Target: Arabidopsis thaliana SHMT
Assay: SHMT activity assay (ED50 SHMT), coupled with N5,N10-CH2-THF dehydrogenase, NADH at 340 nm
Format: biochemical
Details: values given as upper bounds
In short: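 His-tagged SHMT purified on Ni-NTA. NADH formation followed at 340 nm for 30 min; ED50 from inhibition of initial velocity.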

[1] = Arabidopsis thaliana SHMT enzyme assay

Cc1n[nH]c2c1C(c1cc(C#N)cc(N(C)C(=O)CCCC(=O)O)c1)(C1CCC1)C(C#N)=C(N)O2 (stereo not drawn) [Compound 2.636]
EC50 (Table 2): < 10 nM

Cc1n[nH]c2c1C(c1ccc(CCc3nnn[nH]3)c(Cl)c1)(C1CCC1)C(C#N)=C(N)O2 (stereo not drawn) [Compound 2.637]
EC50 (Table 2): < 10 nM

Cc1n[nH]c2c1C(c1ccc(OCc3nnn[nH]3)c(Cl)c1)(C1CCC1)C(C#N)=C(N)O2 (stereo not drawn) [Compound 2.638]
EC50 (Table 2): < 10 nM

Cc1n[nH]c2c1C(c1ccc(Cc3nnn[nH]3)c(Cl)c1)(C1CCC1)C(C#N)=C(N)O2 (stereo not drawn) [Compound 2.639]
EC50 (Table 2): < 10 nM

Cc1n[nH]c2c1C(c1cc(C#N)cc(-c3ccc(C(=O)O)s3)c1)(C1CCC1)C(C#N)=C(N)O2 (stereo not drawn) [Compound 2.640]
EC50 (Table 2): < 10 nM

Cc1n[nH]c2c1C(c1cc(C#N)cc(-c3cc(OC(F)(F)F)cc(C(=O)O)c3)c1)(C1CCC1)C(C#N)=C(N)O2 (stereo not drawn) [Compound 2.643]
EC50 (Table 2): < 10 nM

Cc1n[nH]c2c1C(c1cc(C#N)cc(-c3cc(C(=O)O)cc(C(F)(F)F)c3)c1)(C1CCC1)C(C#N)=C(N)O2 (stereo not drawn) [Compound 2.644]
EC50 (Table 2): < 10 nM

Cc1n[nH]c2c1C(c1ccc(OCCC#N)c(Cl)c1)(C1CCC1)C(C#N)=C(N)O2 (stereo not drawn) [Compound 2.645]
EC50 (Table 2): < 10 nM

Cc1n[nH]c2c1C(c1ccc(OCCc3nnn[nH]3)c(Cl)c1)(C1CCC1)C(C#N)=C(N)O2 (stereo not drawn) [Compound 2.646]
EC50 (Table 2): < 10 nM

Cc1n[nH]c2c1C(c1ccc(CCC#N)c(C#N)c1)(C1CCC1)C(C#N)=C(N)O2 (stereo not drawn) [Compound 2.647]
EC50 (Table 2): < 10 nM

Cc1n[nH]c2c1C(c1cc(CNC(=O)CCC(=O)O)cc(C(F)(F)F)c1)(C1CCC1)C(C#N)=C(N)O2 (stereo not drawn) [Compound 2.649]
EC50 (Table 2): < 10 nM

Cc1n[nH]c2c1C(c1cc(C#N)cc(CCC#N)c1)(C1CCC1)C(C#N)=C(N)O2 (stereo not drawn) [Compound 2.650]
EC50 (Table 2): < 10 nM

Cc1n[nH]c2c1C(c1cc(Cl)cc(Cl)c1)(C(C)F)C(C#N)=C(N)O2 (stereo not drawn) [Compound 2.651]
EC50 (Table 2): < 10 nM

Cc1n[nH]c2c1C(c1cc(Cl)cc(Cl)c1)(C1CC(F)(F)C1)C(C#N)=C(N)O2 (stereo not drawn) [Compound 2.652]
EC50 (Table 2): < 10 nM

Cc1n[nH]c2c1C(c1cc(Cl)cc(Cl)c1)(C(C)(F)F)C(C#N)=C(N)O2 (stereo not drawn) [Compound 2.653]
EC50 [1]: < 100 nM

Cc1n[nH]c2c1C(c1ccc(CCc3nnn[nH]3)c(-c3nnn[nH]3)c1)(C1CCC1)C(C#N)=C(N)O2 (stereo not drawn) [Compound 2.654]
EC50 [1]: < 100 nM

Cc1n[nH]c2c1C(c1cc(CCc3nnn[nH]3)cc(-c3nnn[nH]3)c1)(C1CCC1)C(C#N)=C(N)O2 (stereo not drawn) [Compound 2.655]
EC50 [1]: < 10000 nM

Cc1n[nH]c2c1C(c1cc(C#N)cc(-c3cccc(C(=O)O)c3)c1)(C1(F)COC1)C(C#N)=C(N)O2 (stereo not drawn) [Compound 2.656]
EC50 [1]: < 10 nM

CCOC(=O)CCCN(C)c1cc(C#N)cc(C2(C3CCC3)C(C#N)=C(N)Oc3[nH]nc(C)c32)c1 (stereo not drawn) [Compound 2.658]
EC50 [1]: < 10 nM

Cc1n[nH]c2c1C(c1cc(C#N)cc(N(C)C(=O)CCCC#N)c1)(C1CCC1)C(C#N)=C(N)O2 (stereo not drawn) [Compound 2.659]
EC50 [1]: < 10 nM

Cc1n[nH]c2c1C(c1cc(C#N)cc(N(C)Cc3ccccc3)c1)(C1CCC1)C(C#N)=C(N)O2 (stereo not drawn) [Compound 2.660]
EC50 [1]: < 10 nM

Cc1n[nH]c2c1C(c1cc(C#N)cc(N(C)C(=O)CCC#N)c1)(C1CCC1)C(C#N)=C(N)O2 (stereo not drawn) [Compound 2.661]
EC50 [1]: < 10 nM

Cc1n[nH]c2c1C(c1cc(Cl)cc(SCC#N)c1)(C1CCC1)C(C#N)=C(N)O2 (stereo not drawn) [Compound 2.665]
EC50 [1]: < 10 nM

COCCOCC(=O)N(C)c1cc(C#N)cc(C2(C(C)C)C(C#N)=C(N)Oc3[nH]nc(C)c32)c1 (stereo not drawn) [Compound 2.666]
EC50 [1]: < 10 nM

Cc1n[nH]c2c1C(c1cc(Cl)cc(SCc3nnn[nH]3)c1)(C1CCC1)C(C#N)=C(N)O2 (stereo not drawn) [Compound 2.667]
EC50 [1]: < 10 nM

Cc1n[nH]c2c1C(c1cc(-c3nnn[nH]3)cc(N(C)C(=O)CCC#N)c1)(C1CCC1)C(C#N)=C(N)O2 (stereo not drawn) [Compound 2.668]
EC50 [1]: < 100 nM

Cc1n[nH]c2c1C(c1cc(C#N)cc(N(C)C(=O)c3ccc(C(=O)O)cc3)c1)(C(C)C)C(C#N)=C(N)O2 (stereo not drawn) [Compound 2.669]
EC50 [1]: < 100 nM

Cc1n[nH]c2c1C(c1cc(Cl)cc(CCCC#N)c1)(C1CCC1)C(C#N)=C(N)O2 (stereo not drawn) [Compound 2.670]
EC50 [1]: < 10 nM

Cc1n[nH]c2c1C(c1cc(C#N)cc(CCC#N)c1)(C(C)C)C(C#N)=C(N)O2 (stereo not drawn) [Compound 2.671]
EC50 [1]: < 10 nM

Cc1n[nH]c2c1C(c1ccc(CC#N)c(C#N)c1)(C1CCC1)C(C#N)=C(N)O2 (stereo not drawn) [Compound 2.672]
EC50 [1]: < 10 nM

Cc1n[nH]c2c1C(c1ccc(CCCC#N)c(Cl)c1)(C1CCC1)C(C#N)=C(N)O2 (stereo not drawn) [Compound 2.673]
EC50 [1]: < 10 nM

Cc1n[nH]c2c1C(c1cc(Cl)cc(Cl)c1)(C1CC(F)C1)C(C#N)=C(N)O2 (stereo not drawn) [Compound 2.674]
EC50 [1]: < 10 nM

COC(=O)c1ccc(-c2cc(C#N)cc(C3(C4(F)COC4)C(C#N)=C(N)Oc4[nH]nc(C)c43)c2)s1 (stereo not drawn) [Compound 2.676]
EC50 [1]: < 100 nM

Cc1n[nH]c2c1C(c1cc(Cl)cc(CCCc3nnn[nH]3)c1)(C1CCC1)C(C#N)=C(N)O2 (stereo not drawn) [Compound 2.677]
EC50 [1]: < 10 nM

Cc1n[nH]c2c1C(c1ccc(CCCc3nnn[nH]3)c(Cl)c1)(C1CCC1)C(C#N)=C(N)O2 (stereo not drawn) [Compound 2.678]
EC50 [1]: < 10 nM

COC(=O)c1csc(-c2cc(C#N)cc(C3(C(C)C)C(C#N)=C(N)Oc4[nH]nc(C)c43)c2)c1 (stereo not drawn) [Compound 2.679]
EC50 [1]: < 10 nM

Cc1n[nH]c2c1C(c1cc(C#N)cc(-c3ccc(C(=O)O)s3)c1)(C1(F)COC1)C(C#N)=C(N)O2 (stereo not drawn) [Compound 2.680]
EC50 [1]: < 1000 nM

Cc1n[nH]c2c1C(c1cc(C#N)cc(-c3ccc(C(=O)O)o3)c1)(C1(F)COC1)C(C#N)=C(N)O2 (stereo not drawn) [Compound 2.681]
EC50 [1]: < 10000 nM

COC(=O)c1csc(-c2cc(C#N)cc(C3(C4CCC4)C(C#N)=C(N)Oc4[nH]nc(C)c43)c2)c1 (stereo not drawn) [Compound 2.682]
EC50 [1]: < 10 nM

Cc1n[nH]c2c1C(c1cc(C#N)cc(-c3cc(C(=O)O)cs3)c1)(C1CCC1)C(C#N)=C(N)O2 (stereo not drawn) [Compound 2.683]
EC50 [1]: < 10 nM

Cc1n[nH]c2c1C(c1cc(C#N)cc(-c3cc(C(=O)O)co3)c1)(C1CCC1)C(C#N)=C(N)O2 (stereo not drawn) [Compound 2.684]
EC50 [1]: < 10 nM

Cc1n[nH]c2c1C(c1cc(Br)cc(Br)c1)(C(C)F)C(C#N)=C(N)O2 (stereo not drawn) [Compound 2.685]
EC50 [1]: < 10 nM

Cc1n[nH]c2c1C(c1cc(C#N)cc(-c3cc(C(=O)O)cs3)c1)(C(C)C)C(C#N)=C(N)O2 (stereo not drawn) [Compound 2.686]
EC50 [1]: < 100 nM

Cc1n[nH]c2c1C(c1cc(C#N)cc(C#N)c1)(C(C)F)C(C#N)=C(N)O2 (stereo not drawn) [Compound 2.687]
EC50 [1]: < 100 nM

Cc1n[nH]c2c1C(c1cc(CN)cc(N(C)C(=O)CCCC(=O)O)c1)(C(C)C)C(C#N)=C(N)O2 (stereo not drawn) [Compound 2.689]
EC50 [1]: < 1000 nM

Cc1n[nH]c2c1C(c1cc(-c3nnn[nH]3)cc(N(C)C(=O)CCCC#N)c1)(C1CCC1)C(C#N)=C(N)O2 (stereo not drawn) [Compound 2.690]
EC50 [1]: < 1000 nM

Cc1n[nH]c2c1C(c1cc(C#N)cc(N(C)Cc3nnn[nH]3)c1)(C1CCC1)C(C#N)=C(N)O2 (stereo not drawn) [Compound 2.691]
EC50 [1]: < 100 nM

Cc1n[nH]c2c1C(c1cc(-c3nnn[nH]3)cc(N(C)CCC#N)c1)(C1CCC1)C(C#N)=C(N)O2 (stereo not drawn) [Compound 2.692]
EC50 [1]: < 1000 nM

Cc1n[nH]c2c1C(c1cc(C#N)cc(N(C)CC(=O)O)c1)(C1CCC1)C(C#N)=C(N)O2 (stereo not drawn) [Compound 2.693]
EC50 [1]: < 100 nM

Cc1n[nH]c2c1C(c1cc(C#N)cc(N(C)C(=O)CCCC(=O)O)c1)(C(C)C)C(C#N)=C(N)O2 (stereo not drawn) [Compound 2.694]
EC50 [1]: < 10 nM

Cc1n[nH]c2c1C(c1cc(C#N)cc(N(C)CCCC(=O)O)c1)(C1CCC1)C(C#N)=C(N)O2 (stereo not drawn) [Compound 2.695]
EC50 [1]: < 100 nM

Cc1n[nH]c2c1C(c1cc(Cl)cc(N(C)C(=O)CC#N)c1)(C1CCC1)C(C#N)=C(N)O2 (stereo not drawn) [Compound 2.696]
EC50 [1]: < 10 nM

Cc1n[nH]c2c1C(c1cc(Cl)cc(N(C)C(=O)CCC#N)c1)(C1CCC1)C(C#N)=C(N)O2 (stereo not drawn) [Compound 2.697]
EC50 [1]: < 100 nM

Cc1n[nH]c2c1C(c1cc(Cl)cc(N(C)C(=O)CCc3nnn[nH]3)c1)(C1CCC1)C(C#N)=C(N)O2 (stereo not drawn) [Compound 2.698]
EC50 [1]: < 100 nM

Cc1n[nH]c2c1C(c1cc(Cl)cc(N(C)C(=O)Cc3nnn[nH]3)c1)(C1CCC1)C(C#N)=C(N)O2 (stereo not drawn) [Compound 2.699]
EC50 [1]: < 100 nM

Cc1n[nH]c2c1C(c1cc(Cl)cc(N(C)C(=O)CCCC#N)c1)(C1CCC1)C(C#N)=C(N)O2 (stereo not drawn) [Compound 2.700]
EC50 [1]: < 100 nM

Cc1n[nH]c2c1C(c1cc(Cl)cc(N(C)C(=O)CCCc3nnn[nH]3)c1)(C1CCC1)C(C#N)=C(N)O2 (stereo not drawn) [Compound 2.701]
EC50 [1]: < 100 nM

Cc1n[nH]c2c1C(c1cccc(Br)c1)(C(C)(F)F)C(C#N)=C(N)O2 (stereo not drawn) [Compound 2.702]
EC50 [1]: < 100 nM

Cc1n[nH]c2c1C(c1cc(Br)cc(Br)c1)(C1CC(F)(F)C1)C(C#N)=C(N)O2 (stereo not drawn) [Compound 2.703]
EC50 [1]: < 100 nM

Cc1n[nH]c2c1C(c1cc(C#N)cc(NS(C)(=O)=O)c1)(C1CCC1)C(C#N)=C(N)O2 (stereo not drawn) [Compound 2.704]
EC50 [1]: < 100 nM

COC(=O)c1ccc(-c2cc(C#N)cc(C3(C(C)C)C(C#N)=C(N)Oc4[nH]nc(C)c43)c2)s1 (stereo not drawn) [Compound 2.705]
EC50 [1]: < 10 nM

COC(=O)c1ccc(-c2cc(C#N)cc(C3(C(C)C)C(C#N)=C(N)Oc4[nH]nc(C)c43)c2)o1 (stereo not drawn) [Compound 2.706]
EC50 [1]: < 10 nM

Cc1n[nH]c2c1C(c1cc(C#N)cc(C#N)c1)(C1CC(F)(F)C1)C(C#N)=C(N)O2 (stereo not drawn) [Compound 2.707]
EC50 [1]: < 1000 nM

Cc1n[nH]c2c1C(c1ccc(CC#N)c(-c3nnn[nH]3)c1)(C1CCC1)C(C#N)=C(N)O2 (stereo not drawn) [Compound 2.708]
EC50 [1]: < 10000 nM

Cc1n[nH]c2c1C(c1cc(CCC#N)cc(-c3nnn[nH]3)c1)(C(C)C)C(C#N)=C(N)O2 (stereo not drawn) [Compound 2.710]
EC50 [1]: < 100 nM

Cc1n[nH]c2c1C(c1cc(CCCC#N)cc(-c3nnn[nH]3)c1)(C(C)C)C(C#N)=C(N)O2 (stereo not drawn) [Compound 2.711]
EC50 [1]: < 100 nM

Cc1n[nH]c2c1C(c1cc(C#N)cc(C#N)c1)(C1CC(F)C1)C(C#N)=C(N)O2 (stereo not drawn) [Compound 2.714]
EC50 [1]: < 100 nM

Cc1n[nH]c2c1C(c1cc(CCCc3nnn[nH]3)cc(-c3nnn[nH]3)c1)(C(C)C)C(C#N)=C(N)O2 (stereo not drawn) [Compound 2.715]
EC50 [1]: < 1000 nM

Cc1n[nH]c2c1C(c1cc(CCc3nnn[nH]3)cc(-c3nnn[nH]3)c1)(C(C)C)C(C#N)=C(N)O2 (stereo not drawn) [Compound 2.716]
EC50 [1]: < 10000 nM
